# In PubChem BioAssay AID179 (DTP/NCI, 2004):
# Several values for one entry are separate records, joined by “and”; a condition that tells them apart may be missing. Equal values may be shown once. Activity calls are given as the source filed them.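 How the source made its calls: active means compounds giving half or more protection of infected cells from virus-caused growth loss, again on retest; inactive means the rest.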 Where a SMILES comes first, the peptide text is derived from it. The star is where a group is joined. Cbz = O=C(OCc1ccccc1)*
# Test system: CEM cells HIV-1 protection, formazan growth assay
# Test: NCI AIDS Antiviral Assay
# Details: for IC50: measured here: growth of uninfected CEM cells
# How it was run: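 Human CEM cells, uninfected and HIV-1-infected, received five drug concentrations, and growth was read by soluble formazan assay. Compounds giving at least 50% protection were retested; reproducible 100% protection defined confirmed active.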
SMILES,EC50 [µM],IC50,outcome
O=[N+]([O-])c1ccc(N2N=C(c3ccc4ccccc4c3O)CC2c2ccc(Cl)cc2)c([N+](=O)[O-])c1 (stereo not drawn),> 200,43.7 µM,
CCOC(=O)CNC(=O)C(NC(=O)C1CCCN1C(=O)OCc1ccccc1)C(C)CC (stereo not drawn) (Cbz-Pro-Ile-Gly-OEt; configuration not given here),> 562,34.7 µM,
O=Cc1ccc2c(c1)CC1(C2)Cc2ccc(C=O)cc2C1,> 200,4.79 µM,
COC1=CC(=O)C(Br)=CC1=O,,,inactive
CCOC(=O)Cn1c(=O)cc(C=O)c2ccccc21,> 200,15.5 µM,
COc1cc2cnc3c4cc(O)ccc4ccc3c2cc1OC,> 85.1,44.7 µM,
CCCCCCCCCCCCCCCc1cccc(O)c1C(=O)O,,,inactive
CCc1cc(Cc2cc(Cl)c(NC(=O)C(=O)C3NC(=O)NC3=O)c(CC)c2)cc(Cl)c1NC(=O)C(=O)C1NC(=O)NC1=O (stereo not drawn),> 151,24.5 µM,
COC1(OC)CC2C(=O)N(Cc3ccccc3)C1C=C2S(=O)(=O)c1ccccc1 (stereo not drawn),,,inactive
O=[N+]([O-])c1cccc2nc3ccccc3c(NCCC[N+]3([O-])CCCCC3)c12,> 0.2,0.126 µM,
O=[N+]([O-])c1ccc(C2=Nc3ccccc3N=C(c3ccccc3O)C2)cc1,> 200,> 200 µM,
Cc1cn(C2CC(C/C=[N+](\[O-])CC3OC(n4cc(C)c(=O)[nH]c4=O)CC3O[Si](C)(C)C(C)(C)C)C(CO[Si](C)(C)C(C)(C)C)O2)c(=O)[nH]c1=O (stereo not drawn),> 200,36.3 µM,
CC(CO)NNC(C)CO (stereo not drawn),> 200,> 200 µM,
C/C(CCn1[nH]c(=O)ccc1=O)=N\N=C(N)N,> 4.37,> 4.37 µM,
Cc1ccc(S(=O)(=O)OCCOC(Cc2ccccc2)n2cc(C)c(=O)[nH]c2=O)cc1 (stereo not drawn),> 200,> 200 µM,
Nc1ccccc1S(=O)c1ccccc1 (stereo not drawn),> 275,> 275 µM,
CC(=O)Nc1ccc2c(c1)C(c1ccccc1)=NCC(=O)N2,> 200,55 µM,
O=C1CN(c2cccc(Cl)c2)C(=O)CN1NCNN1CC(=O)N(c2cccc(Cl)c2)CC1=O,> 200,> 200 µM,
CO[C@](C(=O)OC[C@H]1[C@@H](COC(C)=O)[C@@H]2O[C@H]1c1cc3c(cc12)OCO3)(c1ccccc1)C(F)(F)F,> 200,7.59 µM,
Cc1ccc(NC(=O)CC(=O)n2nc(-c3ccccc3)c(N=Nc3ccc(Cl)cc3)c2-c2ccccc2)cc1,> 9.77,> 9.77 µM,
O=c1ccn(C2SC(CO)CC2F)c(=O)[nH]1 (stereo not drawn),> 25.1,> 25.1 µM,
CC(=O)Oc1cc(OC(C)=O)c2c(c1C)CC[C@@H]1[C@@H]2CC[C@]2(C)[C@@H](OC(C)=O)CC[C@@H]12,> 200,18.2 µM,

SMILES,EC50 [µM],IC50,outcome
CC1OC(OC2C(O[C@H]3CC[C@@]4(C)C(=CC[C@H]5[C@@H]6C[C@@H]7O[C@](O)(CC[C@@H](C)COC8OC(CO)C(O)C(O)C8O)[C@@H](C)[C@@H]7[C@@]6(C)CC[C@@H]54)C3)OC(CO)C(O)C2OC2OC(CO)C(O)C(O)C2O)C(O)C(O)C1O (stereo partly drawn),> 100,2.51 µM,
Oc1ccccc1-n1nc2ccc3nonc3c2n1,> 200,> 200 µM,
O=c1ccn(C2CC(F)C(CO)S2)c(=O)[nH]1 (stereo not drawn),> 25.1,> 25.1 µM,
C[C@@H](c1ccccc1)N1CO[C@@]2(C#Cc3ccc4c(c3)OCO4)CCC[C@@H]12,> 200,33.1 µM,
CCOC(=O)C(=C(SC)SC)c1nn2c(=O)cc(C)nc2s1,> 200,17.8 µM,
N#CC(c1ccccc1)[P+](c1ccccc1)(c1ccccc1)c1ccccc1 (stereo not drawn),> 200,141 µM,
COc1cc(C(c2ccccc2)N2C(=O)CC[C@H]2C(=O)O)cc(OC)c1OC (stereo partly drawn),> 200,> 200 µM,
CC(C)C1CNC(=O)C2(C=NC(C(C)C)CNC(=O)C3(C=N1)CCCO3)CCCO2 (stereo not drawn),> 12.3,> 12.3 µM,
CC1(C)CC(=O)C(/C=N/C(=S)Nc2ccc(S(N)(=O)=O)cc2)=C(O)C1,> 200,> 200 µM,
CC1CCC2N(C1)CC1C3(O)CC45OC6(O)C(O)CCC4(C)C6CCC5C3(O)CC(O)C1(O)C2(C)O (stereo not drawn),> 490,> 490 µM,
C(/Cc1ccc2c(c1)OCO2)=N\NC1=NCCN1,> 200,117 µM,
O=Nc1[nH]c(O)c2ccccc12,> 200,> 200 µM,
Cc1cccc(C)c1N=O,,,inactive
CCCCC(C(=O)CCC(=O)Nc1ccc(Cl)cc1)C(=O)C(C)C (stereo not drawn),> 186,> 186 µM,
COc1ccc(/C=C2/C(=O)C(c3ccccc3)N(c3ccccc3)C2=O)cc1OC (stereo not drawn),> 200,107 µM,
CC(=O)OCC1OC(n2ccc(-n3cncn3)nc2=O)CC1N=[N+]=[N-] (stereo not drawn),87.1,> 200 µM,
O=C(/C=C/c1ccccc1)Oc1cccc(O)c1,> 200,5.01 µM,
COc1cc(C2C3C=CC=C4CC=CC(=C43)C3CCC(=O)N32)cc(OC)c1OC (stereo not drawn),> 200,> 200 µM,
COC1=C(C)C2CC(=O)OC3CC4C(C)CC(OC(C)=O)C(=O)[C@]4(C)C(C1=O)[C@@]32C (stereo partly drawn),,,inactive
CCC(=O)OC1=C(c2ccccc2)Sc2ccc(Cl)cc2-n2cccc21,> 200,12 µM,
Cc1ccccc1NS(=O)(=O)c1c(N)ncn1C,> 832,> 832 µM,
COc1ccc(/C(C)=N/Nc2ccc([N+](=O)[O-])cc2[N+](=O)[O-])cc1,,,inactive

SMILES,EC50 [µM],IC50,outcome
C=C1CCC2(C)[C@H](C)CC[C@H](O)C2(CCC=C(C)C)[C@@H]1Cc1c[nH]c2ccccc12 (stereo partly drawn),,,inactive
COC(=O)C(CC(C)C)NC(=O)NC12CC3CC(CC(F)(C3)C1)C2 (stereo not drawn),> 75.9,> 75.9 µM,
COc1ccc(C2c3cc4c(cc3OC(NNC(N)=O)C2C)OCO4)cc1 (stereo not drawn),> 200,3.89 µM,
CS(=O)(=O)c1c(N)c2nc(Cl)cn2c2nc3ccccc3nc12,> 5.75,> 5.75 µM,
NC(=O)c1cccc([C@@H]2O[C@H](CO)[C@@H](O)[C@H]2O)c1,> 977,5.37 µM,
CCCCN(CCCC)C(=S)S,> 200,> 200 µM,
CN(C)CCN1CCc2c([nH]c3ccccc23)C1c1cccnc1 (stereo not drawn),> 6.31,> 6.31 µM,
CCOC(=O)C(=O)C=P(c1ccccc1)(c1ccccc1)c1ccccc1,18.6,35.5 µM,
Nc1nc(N)c(-c2cccc(C(F)(F)F)c2)c(Cc2cccc(C(F)(F)F)c2)n1,> 20,0.759 µM,
Nc1ncnc2c1nnn2C1C=CC(COS(N)(=O)=O)C1 (stereo not drawn),> 200,43.7 µM,
COC(=O)C1(NC(=O)C(CC(=O)OCc2ccccc2)NC(=O)OCc2ccccc2)CCCCCC1 (stereo not drawn),> 200,107 µM,
CC1(C)OCC2OC3([C@@H]4OC(C)(C)O[C@H]4CO)OC(C)(C)OC3C2O1 (stereo partly drawn),> 200,> 200 µM,
O=c1cc(N2CCOCC2)n2c(ccc3ccccc32)n1,> 200,186 µM,
CCCCCCCCCCCCCCCCCCOCC(COP(=O)(O)OCC1OC(n2cc(C)c(=O)[nH]c2=O)CC1N=[N+]=[N-])OC(=O)CCCCCCCCCCCCCCC (stereo not drawn),> 50.1,> 50.1 µM,
CCOC(=O)c1cc(Br)c(-c2onc(C)c2Br)[nH]1,> 200,> 200 µM,
COc1cc2c(cc1OC(=O)CC(C)O)C1C(OC2=O)C(OC(C)=O)C=C2CCN(C)[C@H]21 (stereo partly drawn),> 56.2,> 56.2 µM,
CCOC(=O)/C(=C\c1ccc(OC)cc1)P(=O)(OCC)OCC,> 380,77.6 µM,
O=c1[nH]c(=O)n(C2OC(CO)C(O)C2O)cc1Oc1ccccc1 (stereo not drawn),> 200,> 200 µM,
Cc1nn(C(=O)Cc2ccccc2)c2c1C(c1ccccc1)SC(N)=N2 (stereo not drawn),148,195 µM,
CCOc1ccc(NCc2cc(OC)c(OC)c(OC)c2)cc1,> 158,0.324 µM and 0.339 µM,
CC(=O)Oc1ccc2cc(Oc3cc(Cl)c(Cl)cc3Cl)c(=O)oc2c1,> 200,93.3 µM,
O=[N+]([O-])c1ccc(-n2cccc2)cc1,> 200,22.9 µM,

SMILES,EC50 [µM],IC50,outcome
NS(=O)(=O)c1ccc(NC(=O)c2cccnc2Nc2cccc(Cl)c2)cc1,,,inactive
O=[N+]([O-])c1cccc(C2=NOC(C3CCCCC3)C2)c1 (stereo not drawn),> 36.3,> 36.3 µM,
COC(=O)C(=O)C(C(=O)C(=O)Nc1ccc([N+](=O)[O-])cc1C#N)c1nc2ccc([N+](=O)[O-])cc2[nH]c1=O (stereo not drawn),> 490,209 µM,
O=Cc1ccc2c(c1)CC1(C2)Cc2ccc3c(c2C1)CCC3 (stereo not drawn),> 200,7.41 µM,
O=C(CCCc1ccccc1)NO,,,inactive
CCOC(=O)NC(Nc1cc(Cl)ccc1OC)(C(F)(F)F)C(F)(F)F,> 200,102 µM,
O=C1CSC(=S)N1c1ccccc1,> 240,178 µM,
Cc1ccc(NC(=O)C(=O)C(C2C(C)CC(=O)C2CC(=O)O)[N+](=O)[O-])cc1 (stereo not drawn),,,inactive
O=Cc1ccc2c(c1-c1c(C=O)ccc3c1OCO3)OCO2,> 170,79.4 µM,
CCOc1c2c(nn(C)c1=O)Oc1ccccc1N2CCCN1CCOCC1,> 589,19.1 µM,
CCC[CH2][Sn]1([CH2]CCC)[O]C(=O)c2ccc(C)cc2[O]1,,,inactive
COC(=O)Cc1c(C2C(CC(=O)OC)c3ccccc3N2C2OC(CO)C(O)C(O)C2O)[nH]c2ccccc12 (stereo not drawn),112,151 µM,
Cc1[nH]c(=O)[nH]c(=O)c1CCSSCCc1c(C)[nH]c(=O)[nH]c1=O,> 200,> 200 µM,
CN1C(=O)CCSC1=S,,,inactive
O=C(Nc1ccc(N=Nc2ccc(O)c(C(=O)O)c2)cc1)Nc1ccc(N=Nc2ccc(O)c(C(=O)O)c2)cc1,> 200,141 µM,
CC1(C)N=C(C(N)=O)c2ncn(CCO)c2N1,> 200,> 200 µM,
CCN=C1NN=C(c2ccccc2)c2cc(Cl)ccc2N1,> 120,21.9 µM,
N#CC(C#N)=Cc1cccc([N+](=O)[O-])c1,> 178,15.5 µM,
CCC1(O)C(=O)OCc2c1cc(-c1ccc(Cl)cc1)nc2OC (stereo not drawn),> 200,> 200 µM,
